Patent US7345067B2, “Aniline derivatives, their manufacture and use as pharmaceutical agents” (Hoffmann-La Roche Inc., priority 2003, dated 2008)

How the values were obtained:
[1] = molecular target: T1, PPARα (Homo sapiens, UniProt Q07869); experiment: Radioligand binding assay (SPA), PPARα receptor binding; conditions: GST-PPARα-LBD fusion protein
T1 construct: PPARα (aa 167 to 469); made in house; host or cells: E. coli BL21 (pLysS)
T1 sequence (Q07869 167-468 limits assumed): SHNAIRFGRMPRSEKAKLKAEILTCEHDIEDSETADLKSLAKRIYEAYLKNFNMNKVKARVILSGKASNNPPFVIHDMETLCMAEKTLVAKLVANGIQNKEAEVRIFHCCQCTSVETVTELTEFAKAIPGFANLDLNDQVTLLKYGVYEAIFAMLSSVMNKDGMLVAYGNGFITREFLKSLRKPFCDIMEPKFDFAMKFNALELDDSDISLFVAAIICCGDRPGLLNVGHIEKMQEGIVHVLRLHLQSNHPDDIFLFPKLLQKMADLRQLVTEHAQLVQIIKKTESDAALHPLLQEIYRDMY
Source text: (§1) Background information on the performed assays can be found in: Nichols J S et al. “Development of a scintillation proximity assay for peroxisome proliferator-activated receptor gamma ligand binding domain”, (1998) Anal. Biochem. 257: 112-119.
(§2) Full-length cDNA clones for humans PPARδ and PPARα and mouse PPARγ were obtained by RT-PCR from human adipose and mouse liver cRNA, respectively, cloned into plasmid vectors and verified by DNA sequencing. Bacterial and mammalian expression vectors were constructed to produce glutathione-s-transferase (GST) and Gal4 DNA binding domain proteins fused to the ligand binding domains (LBD) of PPARδ (aa 139 to 442), PPARγ (aa 174 to 476) and PPARα (aa 167 to 469). To accomplish this, the portions of the cloned sequences encoding the LBDs were amplified from the full-length clones by PCR and then subcloned into the plasmid vectors. Final clones were verified by DNA sequence analysis.
(§3) Induction, expression, and purification of GST-LBD fusion proteins were performed in E. coli strain BL21 (pLysS) cells by standard methods (Ref: Current Protocols in Molecular Biology, Wiley Press, edited by Ausubel et al.).
(§4) PPARα receptor binding was assayed in TKE50 (50 mM Tris-HCl, pH 8, 50 mM KCl, 2 mM EDTA, 0.1 mg/ml fatty acid-free BSA and 10 mM DTT). For each 96 well reaction an 140 ng equivalent of GST-PPARα-LBD fusion protein was bound to 10 μg SPA beads (PharmaciaAmersham) in a final volume of 50 μl by shaking. The resulting slurry was incubated for 1 h at RT and centrifuged for 2 min at 1300 g. The supernatant containing unbound protein was removed and the semidry pellet containing the receptor-coated beads was resolved in 50 μl of TKE. For radioligand binding e.g. 10000 dpm of 2(S)-(2-benzoyl-phenylamino)-3-{4-[1,1-d]tritio-2-(5-methyl-2-phenyl-oxazol-4-yl)-ethoxy]-phenyl}-propionic acid or 2,3-ditritio-2(S)-methoxy-3-{4-[2-(5-methyl-2-phenyl-oxazol-4-yl)-ethoxy]-benzo[b]thiophen-7-yl}-propionic acid in 50 ul were added, the reaction incubated at RT for 1 h and scintillation proximity counting performed. All binding assays were performed in 96 well plates and the amount of bound ligand measured on a Packard TopCount using OptiPlates (Packard). Nonspecific binding was determined in the presence of 10^−4 M unlabelled compound. Dose response curves were done in triplicates within a range of concentration from 10^−10 M to 10^−4 M.

[2] = molecular target: T2, PPARγ (Mus musculus, UniProt P37238); experiment: Radioligand binding assay (SPA), PPARγ receptor binding; conditions: GST-PPARγ-LBD fusion protein
T2 construct: PPARγ (aa 174 to 476); made in house; host or cells: E. coli BL21 (pLysS)
T2 sequence (P37238 204-505): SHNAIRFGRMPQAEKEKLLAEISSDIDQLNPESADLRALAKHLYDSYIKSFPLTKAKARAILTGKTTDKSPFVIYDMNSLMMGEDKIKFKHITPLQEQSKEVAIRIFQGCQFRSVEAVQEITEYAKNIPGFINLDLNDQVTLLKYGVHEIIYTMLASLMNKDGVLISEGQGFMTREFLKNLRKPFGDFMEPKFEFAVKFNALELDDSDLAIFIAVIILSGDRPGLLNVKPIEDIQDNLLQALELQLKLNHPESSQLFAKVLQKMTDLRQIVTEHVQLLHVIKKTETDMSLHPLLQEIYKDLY
Source text: as §1, §2, §3
as §4, with “PPARγ receptor” for “PPARα receptor”, “of GST-PPARγ-LBD” for “of GST-PPARα-LBD”, “50 ul” for “50 μl”, “dpm 2(S)-(2-benzoyl-phenylamino)-3-{4-[1,1-ditritio-2-(5-methyl-2-phenyl-oxazol-4-yl)-ethoxy]-phenyl}-propionic” for “dpm of 2(S)-(2-benzoyl-phenylamino)-3-{4-[1,1-d]tritio-2-(5-methyl-2-phenyl-oxazol-4-yl)-ethoxy]-phenyl}-propionic acid or 2,3-ditritio-2(S)-methoxy-3-{4-[2-(5-methyl-2-phenyl-oxazol-4-yl)-ethoxy]-benzo[b]thiophen-7-yl}-propionic”, “50 μl” for “50 ul”

[3] = molecular target: T3, PPARδ (Homo sapiens, UniProt Q03181); experiment: Radioligand binding assay (SPA), PPARδ receptor binding; conditions: GST-PPARδ-LBD fusion protein
T3 construct: PPARδ (aa 139 to 442); made in house; host or cells: E. coli BL21 (pLysS)
T3 sequence (Q03181 139-441 limits assumed): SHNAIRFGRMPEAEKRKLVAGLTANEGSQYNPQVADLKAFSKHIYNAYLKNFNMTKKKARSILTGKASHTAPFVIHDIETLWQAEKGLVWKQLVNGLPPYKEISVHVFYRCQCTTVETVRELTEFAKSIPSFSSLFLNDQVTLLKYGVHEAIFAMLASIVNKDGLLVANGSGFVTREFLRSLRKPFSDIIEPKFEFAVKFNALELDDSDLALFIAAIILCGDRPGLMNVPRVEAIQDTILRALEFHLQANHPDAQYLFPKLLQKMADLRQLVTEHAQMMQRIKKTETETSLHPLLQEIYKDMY
Source text: as §1, §2, §3
PPARδ receptor binding was assayed in HNM10 (50 mM Hepes, pH 7.4, 10 mM NaCl, 5 mM MgCl2, 0.15 mg/ml fatty acid-free BSA and 15 mM DTT). For each 96 well reaction a 500 ng equivalent of GST-PPARδ-LBD fusion protein and radioligand, e.g. 20000 dpm {2-methyl-4-[4-methyl-2-(4-trifluoromethyl-phenyl)-thiazol-5-yl-ditritiomethylsulfanyl]-phenoxy}-acetic acid, was bound to 10 μg SPA beads (PharmaciaAmersham) in a final volume of 50 μl by shaking. The resulting slurry was incubated for 1 h at RT and centrifuged for 2 min at 1300 g. The supernatant containing unbound protein was removed and the semidry pellet containing the receptor-coated beads was resuspended in 50 ul of HNM. Radioligand was added and the reaction incubated at RT for 1 h and scintillation proximity counting performed in the presence of test compounds was determined. All binding assays were performed in 96 well plates and the amount of bound ligand was measured on a Packard TopCount using OptiPlates (Packard). Dose response curves were done in triplicates within a range of concentration from 10^−10 M to 10^−4 M.

Row | SMILES | melting point | IC50 [1] | IC50 [2] | IC50 [3]
1 | Cc1cc(NCc2sc(-c3ccc(C(F)(F)F)cc3)nc2C)ccc1OCC(=O)O [Example 18.3, (2-Methyl-4-{[4-methyl-2-(4-trifluoromethyl-phenyl)-thiazol-5-ylmethyl]-amino}-phenoxy)-acetic acid] | 201 to 203 °C (dec.) | – | – | –
2 | COc1cc(N(C)Cc2sc(-c3ccc(C(F)(F)F)cc3)nc2C)ccc1OCC(=O)O [Example 8.7, (2-Methoxy-4-{methyl-[4-methyl-2-(4-trifluoromethyl-phenyl)-thiazol-5-ylmethyl]-amino}-phenoxy)-acetic acid] | 129 to 131 °C (dec.) | – | – | –
3 | COCCCc1cc(N(C)Cc2sc(-c3ccc(C(F)(F)F)cc3)nc2C)ccc1OCC(=O)O [Example 13.10, (2-(3-Methoxy-propyl)-4-{methyl-[4-methyl-2-(4-trifluoromethyl-phenyl)-thiazol-5-ylmethyl]-amino}-phenoxy)-acetic acid] | 142 to 143 °C | 3960 nM | > 10000 nM | 34 nM
4 | CCc1cc(N(C)Cc2sc(-c3ccc(C(F)(F)F)cc3)nc2C)ccc1OCC(=O)O [Example 7.8, (2-Ethyl-4-{methyl-[4-methyl-2-(4-trifluoromethyl-phenyl)-thiazol-5-ylmethyl]-amino}-phenoxy)-acetic acid] | 142 to 143 °C (dec.) | 308 nM | 2210 nM | 10.1 nM
5 | Cc1nc(-c2ccc(C(F)(F)F)cc2)sc1CN(C)c1ccc(OCC(=O)O)c(C(F)(F)F)c1 [Example 6.8, (4-{Methyl-[4-methyl-2-(4-trifluoromethyl-phenyl)-thiazol-5-ylmethyl]-amino}-2-trifluoromethyl-phenoxy)-acetic acid] | 180 to 181 °C | 463 nM | > 10000 nM | 16.2 nM
6 | Cc1cc(N(C)Cc2oc(-c3ccc(C(F)(F)F)cc3)nc2C)ccc1OCC(=O)O [Example 14, (2-Methyl-4-{methyl-[4-methyl-2-(4-trifluoromethyl-phenyl)-oxazol-5-ylmethyl]-amino}-phenoxy)-acetic acid] | 156 to 157 °C | – | – | –
7 | Cc1cc(N(C)Cc2oc(-c3ccc(C(F)(F)F)cc3)nc2C)cc(C)c1OCC(=O)O [Example 16.4, (2,6-Dimethyl-4-{methyl-[4-methyl-2-(4-trifluoromethyl-phenyl)-oxazol-5-ylmethyl]-amino}-phenoxy)-acetic acid] | 122 to 123 °C | – | – | –
8 | Cc1nc(-c2ccc(C(F)(F)F)cc2)sc1CN(C)c1ccc(OCC(=O)O)c(Cl)c1 [Example 4.6, (2-Chloro-4-{methyl-[4-methyl-2-(4-trifluoromethyl-phenyl)-thiazol-5-ylmethyl]-amino}-phenoxy)-acetic acid] | 149 to 150 °C (dec.) | 412 nM | > 10000 nM | 21 nM
9 | CCN(Cc1sc(-c2ccc(C(F)(F)F)cc2)nc1C)c1cc(C)c(OCC(=O)O)c(C)c1 [Example 15.5, (4-{Ethyl-[4-methyl-2-(4-trifluoromethyl-phenyl)-thiazol-5-ylmethyl]-amino}-2,6-dimethyl-phenoxy)-acetic acid] | 161 to 162 °C | – | – | –
10 | Cc1nc(-c2ccc(C(F)(F)F)cc2)sc1CN(C)c1ccc(OCC(=O)O)c(I)c1 [Example 20.8, (2-Iodo-4-{methyl-[4-methyl-2-(4-trifluoromethyl-phenyl)-thiazol-5-ylmethyl]-amino}-phenoxy)-acetic acid] | 172.5 to 173 °C | – | – | –
11 | Cc1cc(N(C)Cc2sc(-c3ccc(C(F)(F)F)cc3)nc2C)ccc1OCC(=O)O [Example 1.6, (2-Methyl-4-{methyl-[4-methyl-2-(4-trifluoromethyl-phenyl)-thiazol-5-ylmethyl]-amino}-phenoxy)-acetic acid] | 146 to 149 °C (dec.) | 1750 nM | > 10000 nM | 17.7 nM
12 | CCN(Cc1sc(-c2ccc(C(F)(F)F)cc2)nc1C)c1ccc(OCC(=O)O)c(C)c1 [Example 19.2, (4-{Ethyl-[4-methyl-2-(4-trifluoromethyl-phenyl)-thiazol-5-ylmethyl]-amino}-2-methyl-phenoxy)-acetic acid] | 147 to 154 °C (dec.) | – | – | –
13 | Cc1nc(-c2ccc(C(F)(F)F)cc2)sc1CN(C)c1ccc(OCC(=O)O)c(F)c1 [Example 5.7, (2-Fluoro-4-{methyl-[4-methyl-2-(4-trifluoromethyl-phenyl)-thiazol-5-ylmethyl]-amino}-phenoxy)-acetic acid] | 113 to 114 °C | 1060 nM | > 10000 nM | 49.8 nM
